Data reported in the supplement of paper PMC10307832.

Tests used:
Assay in all cases: relative viability (nuclei count vs DMSO), 5 days (fraction); higher = more cells survive
AZ505 + Bortezomib = compound: C1CCC(CC1)N(CCNCCC2=C3C(=C(C=C2)O)NC(=O)CO3)C(=O)CCNCCC4=CC(=C(C=C4)Cl)Cl [AZ505] + CC(C)C[C@H](NC(=O)[C@H](Cc1ccccc1)NC(=O)c1cnccn1)B(O)O [Bortezomib] (partner 0.002 µM)
In short: (§1)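 One day after seeding in 1536-well plates, lung cancer cell lines were dosed by pin tool. Dosing was either single-drug or a fixed anchor-drug dose plus five library-drug doses (not always all listed) in √10 steps. After 5 days, nuclei were stained in one fix-and-stain step and counted on 4× images, and relative viability is the nuclei count of treated wells over that of vehicle wells, given as the median of duplicate plates.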

AZ505 + Decitabine = compound: C1CCC(CC1)N(CCNCCC2=C3C(=C(C=C2)O)NC(=O)CO3)C(=O)CCNCCC4=CC(=C(C=C4)Cl)Cl [AZ505] + Nc1ncn([C@H]2C[C@H](O)[C@@H](CO)O2)c(=O)n1 [Decitabine] (partner 2 µM)
In short: as §1

Dactolisib + Luminespib = compound: Cn1c(=O)n(-c2ccc(C(C)(C)C#N)cc2)c2c3cc(-c4cnc5ccccc5c4)ccc3ncc21 [Dactolisib] + CCNC(=O)c1noc(-c2cc(C(C)C)c(O)cc2O)c1-c1ccc(CN2CCOCC2)cc1 [Luminespib] (partner 0.01 µM)
In short: as §1

Dactolisib + Dasatinib = compound: Cn1c(=O)n(-c2ccc(C(C)(C)C#N)cc2)c2c3cc(-c4cnc5ccccc5c4)ccc3ncc21 [Dactolisib] + Cc1nc(Nc2ncc(C(=O)Nc3c(C)cccc3Cl)s2)cc(N2CCN(CCO)CC2)n1 [Dasatinib] (partner 0.075 µM)
In short: as §1

Cell Line	relative viability (AZ505 + Bortezomib; first compound 0.08 µM)	relative viability (AZ505 + Bortezomib; first compound 0.253 µM)	relative viability (AZ505 + Bortezomib; first compound 0.8 µM)	relative viability (AZ505 + Bortezomib; first compound 2.53 µM)	relative viability (AZ505 + Bortezomib; first compound 8 µM)	relative viability (AZ505 + Decitabine; first compound 0.08 µM)	relative viability (AZ505 + Decitabine; first compound 0.253 µM)	relative viability (AZ505 + Decitabine; first compound 0.8 µM)	relative viability (AZ505 + Decitabine; first compound 2.53 µM)	relative viability (AZ505 + Decitabine; first compound 8 µM)	relative viability (Dactolisib + Luminespib; first compound 0.002 µM)	relative viability (Dactolisib + Luminespib; first compound 0.006325 µM)	relative viability (Dactolisib + Luminespib; first compound 0.02 µM)	relative viability (Dactolisib + Luminespib; first compound 0.06325 µM)	relative viability (Dactolisib + Luminespib; first compound 0.2 µM)	relative viability (Dactolisib + Dasatinib; first compound 0.002 µM)	relative viability (Dactolisib + Dasatinib; first compound 0.006325 µM)	relative viability (Dactolisib + Dasatinib; first compound 0.02 µM)	relative viability (Dactolisib + Dasatinib; first compound 0.06325 µM)	relative viability (Dactolisib + Dasatinib; first compound 0.2 µM)
NCI-H3122	1.01	1.02	1.07	1.04	1.03	0.417	0.414	0.418	0.454	0.431	0.134	0.0901	0.104	0.0762	0.085	0.702	0.818	0.752	0.675	0.225
PC-3 [JPC-3]	0.735	0.768	0.684	0.775	0.771	0.849		0.861	0.79	0.79	0.759	0.639	0.683	0.472	0.48	1.1	0.941	0.911	1.03	0.885
PC-14	0.776	0.877	0.882	0.768	0.841	0.2	0.261	0.272	0.192	0.258	0.136	0.16	0.172	0.11	0.128	0.312	0.285	0.264	0.0655	0.0441
RERF-LC-KJ	1.02	1.02	1.18	1.09	1.12	0.719	0.664	0.757	0.78	0.567	1.3	1.29	0.859	0.326	0.415	0.99	0.747	0.69	0.347	0.311
SK-LU-1	0.703	0.561	0.778	0.923	0.761	0.518	0.568	0.565	0.406	0.604	0.211	0.18	0.214	0.159	0.132	0.148	0.172	0.162	0.145	0.127
SW 1573	0.907	1.08	0.939	1.12	1.08	0.517	0.63	0.569	0.476	0.501	0.234	0.214	0.214	0.168	0.0994	0.627	0.493	0.306	0.146	0.119
